What was measured:
[1] = tested on: calvary clover (Medicago arabica, MEDAB); experiment: Field trial, post-emergence foliar application, weed control of calvary clover; type: in vivo; settings: 27 days, applied alone
Text: The (a) aminocyclopyrachlor or an agriculturally acceptable salt or ester thereof is mixed with or applied in combination with (b) clopyralid or an agriculturally acceptable salt or ester thereof in an amount sufficient to induce a synergistic herbicidal effect. […] As described in the Herbicide Handbook of the Weed Science Society of America, Ninth Edition, 2007, p. 429, “'synergism' [is] an interaction of two or more factors such that the effect when combined is greater than the predicted effect based on the response to each factor applied separately.” Synergistic in the herbicide context can mean that the use of (a) and (b) as defined above results in an increased weed control effect compared to the weed control effects that are possible with the use of (a) or (b) alone. In some embodiments, the damage or injury to the undesired vegetation caused by the compositions and methods disclosed herein is evaluated using a scale from 0% to 100%, when compared with the untreated control vegetation, wherein 0% indicates no damage to the undesired vegetation and 100% indicates complete destruction of the undesired vegetation. […] 22 (1967) Field trials were conducted with applications made to established grassland with naturally occurring weed populations. The target plants were treated with postemergence foliar applications when they reached three to five inches tall. All treatments were applied using a randomized complete block trial design, with 4 replications per treatment. Treatments consisted of aminocyclopyrachlor in acid form and clopyralid-olamine, each in water and applied alone or in combination. Spray solutions were prepared using an appropriate amount of dilution to form a 2 L aqueous spray solution with active ingredients in single and two way combinations. Formulated compounds were applied to the plant material with a backpack sprayer equipped with 8003 nozzles calibrated to deliver 187 L/ha at a spray height of 18 inches (43 centimeters (cm)) above average plant canopy. […] The results were measured at 7 days and 27 days after the first application of the compositions. […]

[2] = tested on: buckhorn plantain (Plantago lanceolata, PLALA); experiment: Field trial, post-emergence foliar application, weed control of buckhorn plantain; type: in vivo; settings: applied alone
Text: The (a) aminocyclopyrachlor or an agriculturally acceptable salt or ester thereof is mixed with or applied in combination with (b) clopyralid or an agriculturally acceptable salt or ester thereof in an amount sufficient to induce a synergistic herbicidal effect. […] As described in the Herbicide Handbook of the Weed Science Society of America, Ninth Edition, 2007, p. 429, “'synergism' [is] an interaction of two or more factors such that the effect when combined is greater than the predicted effect based on the response to each factor applied separately.” Synergistic in the herbicide context can mean that the use of (a) and (b) as defined above results in an increased weed control effect compared to the weed control effects that are possible with the use of (a) or (b) alone. In some embodiments, the damage or injury to the undesired vegetation caused by the compositions and methods disclosed herein is evaluated using a scale from 0% to 100%, when compared with the untreated control vegetation, wherein 0% indicates no damage to the undesired vegetation and 100% indicates complete destruction of the undesired vegetation. […] 22 (1967) Field trials were conducted with applications made to established grassland with naturally occurring weed populations. The target plants were treated with postemergence foliar applications when they reached three to five inches tall. All treatments were applied using a randomized complete block trial design, with 4 replications per treatment. Treatments consisted of aminocyclopyrachlor in acid form and clopyralid-olamine, each in water and applied alone or in combination. Spray solutions were prepared using an appropriate amount of dilution to form a 2 L aqueous spray solution with active ingredients in single and two way combinations. Formulated compounds were applied to the plant material with a backpack sprayer equipped with 8003 nozzles calibrated to deliver 187 L/ha at a spray height of 18 inches (43 centimeters (cm)) above average plant canopy. The treated plants were buckhorn plantain (Plantago lanceolata, PLALA) and […] clover (Medicago arabica, MEDAB). The treated plots and control plots were rated blind at various intervals after application. Ratings were based on a scale of 0-100%, as discussed above, wherein 0% indicates no damage to the undesired vegetation and 100% indicates complete destruction of the undesired vegetation Colby's equation was used to determine the herbicidal effects expected from the mixtures, as described above. The results were measured at 7 days and 27 days after the first application of the compositions. […] The herbicide tank mix combinations tested, application rates and ratios employed, plant species tested, and results are given below.

Structure (SMILES) | Mean % weed control ([1]; 18 g ae/ha) | Mean % weed control ([2]; 7 days, 18 g ae/ha) | Mean % weed control ([2]; 27 days, 18 g ae/ha) | Mean % weed control ([2]; 27 days, 35 g ae/ha) | Mean % weed control ([1]; 35 g ae/ha) | Mean % weed control ([1]; 70 g ae/ha) | Mean % weed control ([2]; 7 days, 35 g ae/ha) | Mean % weed control ([2]; 27 days, 70 g ae/ha)
Nc1nc(C2CC2)nc(C(=O)O)c1Cl [Aminocyclopyrachlor, 6-amino-5-chloro-2-cyclopropylpyrimidine-4-carboxylic acid] | 27.5% | 18.75% | 22.5% | 35% | – | – | – | –
O=C(O)c1nc(Cl)ccc1Cl [Clopyralid-olamine, clopyralid-olamine] | – | – | – | – | 13% | 30% | 18% | 28%
